Laboratory results taken from patent US20250241891A1, “TREATMENT OF ANXIETY” (GH RESEARCH IRELAND LIMITED, priority 2022, published 2025).

Tested on: patients with postpartum depression (PPD)
Assay: Clinical trial of inhaled 5-MeO-DMT in postpartum depression (MADRS, BPRS, BIMF, PES, safety)
Description: The single-arm, open-label clinical trial will involve 15 adult female patients with clinically diagnosed postpartum depression (PPD).
The second dose (12 mg) will only be administered if: • a. […] The 6 mg dose was safe and well-tolerated according to the investigator, • c. Any psychoactive effects (PsE) of the prior dose have subsided, and • d. Pre-dose vital parameters and forced expiratory volume in one second (FEV1) are in normal range, or if outside of the normal range, are not clinically significant according to the investigator. • 3. Similarly, a third dose (18 mg) will only be administered if: • a. […] The 12 mg dose was safe and well-tolerated according to the investigator, and • c. Any PsE of the prior dose have subsided, and • d. Pre-dose vital parameters and forced expiratory volume in one second (FEV1) are in normal range, or if outside of the normal range, are not clinically significant according to the investigator.
The patients will be assessed for a peak psychedelic experience (based on a patient-scored visual analogue scale, the PE scale), sedation, and other endpoints after dosing. Follow-up visits are planned for Day 1, and Day 7 after the dosing day.
The following criteria must be met by all patients considered for clinical trial participation: • 1. Is female and in the age range between 18 and 45 years (inclusive) at screening. • 2. Has a body mass index (BMI) in the range of 18.5 and 35 kg/m^2 (inclusive) at screening. • 3. Meets the trial criteria for PPD as assessed by a trial psychiatrist or registered psychologist: • a. Diagnosis of Major Depressive Disorder without psychotic features, confirmed by the Mini-International Neuropsychiatric Interview (MINI), with peri-partum onset that began no earlier than gestation and no later than the first 4 weeks postpartum. • b. Has a Montgomery-Åsberg Depression Rating Scale (MADRS) total score of equal to or greater than 28 at screening and pre-dose on Day 0. • 6. […] Patients must have a negative pregnancy test at screening and on the pre-test day (Day −1). • 5. Is willing to delay start of other antidepressant or anxiety medication until after the end of the trial at Day 7 and agrees to keep any psychotherapy unchanged during the trial.
A potential patient who meets any of the following key exclusion criteria will be excluded from participation in this trial: • 1. Has, based on history, psychiatric assessment, and evaluation of the MINI, a current or prior diagnosis of bipolar disorder, a manic or hypomanic episode, a psychotic disorder, Major Depressive Disorder (MDD) or other mood disorder with psychotic features, obsessive compulsive disorder, post-traumatic stress disorder (PTSD), autism spectrum disorder, borderline personality disorder, schizophrenia, delusional disorder, paranoid personality disorder, schizoaffective disorder, clinically significant intellectual disability, or any other psychiatric comorbidity that renders the patient unsuitable for the trial according to the investigator's judgment. • 2. Has one or more first or second degree relatives with a current or previously diagnosed bipolar disorder, psychotic disorder or other mood disorder (including MDD) with psychotic features. • 3. Is in the judgement of a trial psychiatrist or registered psychologist, at significant risk for suicide based on history, psychiatric assessment, and evaluation of suicidal ideation and suicidal behaviour based on the Columbia-Suicide Severity Rating Scale (C-SSRS). • 4. Has taken anti-depressive medication within 14 days or 5 half-lives (whichever is longer) prior to dosing (exception: within the last 5 weeks in the case of fluoxetine). • 5.

[1] = PPD n=1, IDR 6+12 mg inhaled, 2 hr, baseline 0
[2] = PPD n=1, IDR 6+12 mg inhaled, 2 hr, baseline 3
[3] = PPD n=1, IDR 6+12 mg inhaled, 2 hr, baseline 4
[4] = PPD n=1, IDR 6+12 mg inhaled, 2 hr, baseline 5
[5] = PPD n=1, IDR 6+12 mg inhaled, Day 7, Day 0 score 5
[6] = PPD n=1, IDR 6+12 mg inhaled, Day 7, Day 0 score 6
[7] = PPD n=1, IDR 6+12 mg inhaled, Day 7 vs Day 0
[8] = PPD n=1, IDR 6+12 mg inhaled, day 1, baseline 0
[9] = PPD n=1, IDR 6+12 mg inhaled, day 1, baseline 1
[10] = PPD n=1, IDR 6+12 mg inhaled, day 1, baseline 2
[11] = PPD n=1, IDR 6+12 mg inhaled, day 1, baseline 3
[12] = PPD n=1, IDR 6+12 mg inhaled, day 1, baseline 4
[13] = PPD n=1, IDR 6+12 mg inhaled, day 1, baseline 5

COc1ccc2[nH]cc(CCN(C)C)c2c1 [5-MeO-DMT]
tolerability of the inhalation procedure (PPD n=1): well tolerated with no inhalation-related adverse events | MADRS remission criteria (MADRS total score equal or less than 10) (PPD n=1, IDR 6+12 mg inhaled): fulfilled | MADRS response criteria (at least 50% improvement from baseline) (PPD n=1, IDR 6+12 mg inhaled): fulfilled | reported adverse events (cramping left abdominal pain and headache, Day 0) (PPD n=1, IDR 6+12 mg inhaled): mild, short-lasting and resolved spontaneously | time to clinical response after administration (PPD n=1, IDR 6+12 mg inhaled): ≤ 2 h | durability of clinical response (PPD n=1, IDR 6+12 mg inhaled given on one day): sustained over the 7-day follow-up period | MADRS Concentration Difficulties improvement [1]: 0 | MADRS Concentration Difficulties score [1]: 0 | MADRS Reduced appetite improvement [1]: 0 | MADRS Reduced appetite score [1]: 0 | MADRS Suicidal Thoughts improvement [1]: 0 | MADRS Suicidal Thoughts score [1]: 0 | MADRS Inability to Feel improvement [2]: 3 | MADRS Inability to Feel score [2]: 0 | MADRS Lassitude improvement [2]: 3 | MADRS Lassitude score [2]: 0 | MADRS Pessimistic Thoughts improvement [3]: 4 | MADRS Pessimistic Thoughts score [3]: 0 | MADRS Reported sadness improvement [3]: 4 | MADRS Reported sadness score [3]: 0 | MADRS Apparent sadness improvement [4]: 5 | MADRS Apparent sadness score [4]: 0 | MADRS Inner Tension improvement [4]: 5 | MADRS Inner Tension score [4]: 0 | MADRS Reduced Sleep improvement [4]: 0 | MADRS Reduced Sleep score [4]: 5 | BIMF item 18 score: Anxiety or worry often interferes with my mothering ability (PPD n=1, IDR 6+12 mg inhaled, Day 7, Day 0 score 2): 5 | BIMF item 16 score: I worry about how other people judge me (as a mother) (PPD n=1, IDR 6+12 mg inhaled, Day 7, Day 0 score 3): 5 | BIMF item 13 score: I am taking good care of my physical needs (eating, showering, etc) (PPD n=1, IDR 6+12 mg inhaled, Day 7, Day 0 score 4): 5 | BIMF item 10 score: I trust my own feelings (instincts) when it comes to taking care of my baby [5]: 6 | BIMF item 17 score: I am able to take care of my baby and my other responsibilities [5]: 5 | BIMF item 3 score: I am comfortable with the way I've chosen to feed my baby (either bottle or breast, or both) [6]: 6 | BIMF item 6 score: There are people in my life that I can trust to care for my baby when I need a break [6]: 6 | BIMF item 12 score: I am taking good care of my baby's physical needs (feedings, changing diapers, doctor's appointments) [6]: 6 | BIMF item 14 score: I make good decisions about my baby's health and well being [6]: 6 | BIMF functional domain Adjustment Δ (Day 7) [7]: 1 | BIMF functional domain Infant Care Δ (Day 7) [7]: 0 | BIMF functional domain Management Δ (Day 7) [7]: 5 | BIMF functional domain Mother-Child Interaction Δ (Day 7) [7]: 2 | BIMF functional domain Psychological Well-being Δ (Day 7) [7]: 9 | BIMF functional domain Self Care Δ (Day 7) [7]: 4 | BIMF functional domain Social Support Δ (Day 7) [7]: 1 | BIMF item 1 Δ (Day 7): I am a good mother [7]: 0 | BIMF item 2 Δ (Day 7): I feel rested [7]: 2 | BIMF item 3 Δ (Day 7): I am comfortable with the way I've chosen to feed my baby (either bottle or breast, or both) [7]: 0 | BIMF item 4 Δ (Day 7): My baby and I understand each other [7]: 0 | BIMF item 5 Δ (Day 7): I am able to relax and enjoy time with my baby [7]: 1 | BIMF item 6 Δ (Day 7): There are people in my life that I can trust to care for my baby when I need a break [7]: 0 | BIMF item 8 Δ (Day 7): I am getting enough adult interaction [7]: 0 | BIMF item 9 Δ (Day 7): I am getting enough encouragement from other people [7]: 1 | BIMF item 10 Δ (Day 7): I trust my own feelings (instincts) when it comes to taking care of my baby [7]: 1 | BIMF item 11 Δ (Day 7): I take a little time each week to do something for myself [7]: 1 | BIMF item 12 Δ (Day 7): I am taking good care of my baby's physical needs (feedings, changing diapers, doctor's appointments) [7]: 0 | BIMF item 13 Δ (Day 7): I am taking good care of my physical needs (eating, showering, etc) [7]: 1 | BIMF item 14 Δ (Day 7): I make good decisions about my baby's health and well being [7]: 0 | BIMF item 15 Δ (Day 7): My baby and I are getting into a routine [7]: 1 | BIMF item 16 Δ (Day 7): I worry about how other people judge me (as a mother) [7]: 2 | BIMF item 17 Δ (Day 7): I am able to take care of my baby and my other responsibilities [7]: 0 | BIMF item 18 Δ (Day 7): Anxiety or worry often interferes with my mothering ability [7]: 3 | BIMF item 19 Δ (Day 7): As time goes on, I am getting better at taking care of my baby [7]: 1 | BIMF item 20 Δ (Day 7): I am satisfied with the job I am doing as a new mother [7]: −1 | MADRS Concentration Difficulties improvement [8]: 0 | MADRS Concentration Difficulties score [8]: 0 | MADRS Reduced appetite improvement [8]: 0 | MADRS Reduced appetite score [8]: 0 | MADRS Suicidal Thoughts improvement [8]: 0 | MADRS Suicidal Thoughts score [8]: 0 | BPRS Blunted Affect score [9]: 1 | BPRS Blunted affect improvement [9]: 0 | BPRS Conceptual disorganization improvement [9]: 0 | BPRS Conceptual disorganization score [9]: 1 | BPRS Disorientation improvement [9]: 0 | BPRS Disorientation score [9]: 1 | BPRS Grandiosity improvement [9]: 0 | BPRS Grandiosity score [9]: 1 | BPRS Hallucinatory behaviour improvement [9]: 0 | BPRS Hallucinatory behaviour score [9]: 1 | BPRS Hostility improvement [9]: 0 | BPRS Hostility score [9]: 1 | BPRS Mannerisms and Posturing improvement [9]: 0 | BPRS Mannerisms and Posturing score [9]: 1 | BPRS Motor retardation improvement [9]: 0 | BPRS Motor retardation score [9]: 1 | BPRS Suspiciousness improvement [9]: 0 | BPRS Suspiciousness score [9]: 1 | BPRS Uncooperativeness improvement [9]: 0 | BPRS Uncooperativeness score [9]: 1 | BPRS Unusual Thought Content improvement [9]: 0 | BPRS Unusual Thought Content score [9]: 1 | BPRS Excitement improvement [10]: 1 | BPRS Excitement score [10]: 1 | MADRS Inability to Feel improvement [11]: 3 | MADRS Inability to Feel score [11]: 0 | MADRS Lassitude improvement [11]: 3 | MADRS Pessimistic Thoughts improvement [12]: 4 | MADRS Pessimistic Thoughts score [12]: 0 | MADRS Reported sadness improvement [12]: 4 | MADRS Reported sadness score [12]: 0 | BPRS Emotional Withdrawal score [13]: 1 | BPRS Emotional withdrawal improvement [13]: 4 | MADRS Apparent sadness improvement [13]: 5 | MADRS Apparent sadness score [13]: 0 | MADRS Inner Tension improvement [13]: 5 | MADRS Inner Tension score [13]: 0
